For two molecules, IC50 results are on record in ChEMBL document CHEMBL1141558, “Design and synthesis of a siderophore conjugate as a potent PSMA inhibitor and potential diagnostic agent for prostate cancer” (Bioorg Med Chem, 2008).

The target in assay [1] is T1, Glutamate carboxypeptidase 2 (Homo sapiens, UniProt Q04609). Description: Inhibition of NAALADase expressed in LNCaP human prostate cancer cells. Format: cell-based.
Assay [2] concerns the target T1, Glutamate carboxypeptidase 2. The experiment in a line: Inhibition of human recombinant NAALADase.

T1 sequence (Q04609 whole entry): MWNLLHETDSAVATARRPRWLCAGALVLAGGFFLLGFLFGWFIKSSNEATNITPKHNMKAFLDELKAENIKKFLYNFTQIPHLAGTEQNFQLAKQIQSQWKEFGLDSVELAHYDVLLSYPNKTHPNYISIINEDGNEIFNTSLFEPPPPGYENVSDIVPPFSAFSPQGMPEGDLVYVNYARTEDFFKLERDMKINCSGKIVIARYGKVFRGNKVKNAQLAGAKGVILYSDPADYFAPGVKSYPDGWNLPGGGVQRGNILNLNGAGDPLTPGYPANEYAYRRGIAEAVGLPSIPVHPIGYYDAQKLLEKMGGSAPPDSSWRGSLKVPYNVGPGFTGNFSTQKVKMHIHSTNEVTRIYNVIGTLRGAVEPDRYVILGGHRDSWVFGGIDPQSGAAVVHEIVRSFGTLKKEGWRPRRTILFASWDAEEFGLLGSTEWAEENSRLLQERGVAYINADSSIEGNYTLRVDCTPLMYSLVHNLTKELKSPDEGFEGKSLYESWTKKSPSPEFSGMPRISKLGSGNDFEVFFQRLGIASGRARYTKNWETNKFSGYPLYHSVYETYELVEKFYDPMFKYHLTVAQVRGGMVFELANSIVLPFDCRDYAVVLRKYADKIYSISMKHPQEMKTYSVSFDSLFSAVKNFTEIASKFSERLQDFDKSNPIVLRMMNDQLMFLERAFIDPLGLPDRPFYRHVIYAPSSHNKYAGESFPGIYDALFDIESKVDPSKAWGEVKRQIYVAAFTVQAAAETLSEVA

By IC50 is commonly meant the midpoint of a concentration-inhibition curve. With `O=C(O)CCC(CP(=O)(O)OCc1ccccc1)C(=O)O` (configuration not stated), the IC50 in assay [1] is 12.5 nM. Take `CC(=O)N[C@@H](CCCN(O)C(C)=O)C(=O)N[C@@H](CCCN(O)C(C)=O)C(=O)N[C@@H](CCCN(O)C(C)=O)C(=O)NCCCC(=O)c1ccc(C(=O)NCC(=O)Nc2ccc(CCOP(=O)(O)C[C@@H](CCC(=O)O)C(=O)O)cc2)cc1`: the IC50 in assay [2] is 4 nM.
